Measured values taken from patent publication US12403195B2, “Sensitizing cells to proton radiation” (Humanetics Corporation, priority 2017, dated 2025).
Read-outs that look alike come from different tables or passages of the source.

Tests used:
[1] = humans; compared to formulations containing non-micronized genistein; cited from earlier work
[2] = canines; compared to formulations containing non-micronized genistein; cited from earlier work
[3] = mice; compared to formulations containing non-micronized genistein; cited from earlier work
[4] = system: MRC5 normal human lung fibroblasts; assay: Clonogenic cell survival after radiation, MRC5 cells; assay type: cell-based; conditions: for Genistein (D0): 5 μM nanoparticulate genistein 24 hours before radiation; for DMF (Dose Modifying Factor): 5 μM nanoparticulate genistein vs vehicle
Excerpt: (§1) In the experiments described herein, a R10.5M5 double scattered proton beam (a proton beam with a maximum range of 10.5 cm where the SOBP comprises the final 5 cm) was utilized with precise positioning of culture dishes at specific points at the entrance, middle, and end of the SOBP. For this beam, the “low LET” was at 2 cm depth, corresponding to about 4 keV/μM, and the high LET was at 10 cm depth, corresponding to about 30 keV/μM. As used herein, the term “low LET” refers to about one to about ten (e.g., about one to three, two to four, three to five, four to six, five to seven, six to eight, seven to nine, or eight to ten) keV/μM unrestricted LET as determined from tables of proton stopping power in liquid water, available from the National Institute of Standards and Technology (stopping power and range tables for protons; “PSTAR”). The term “high-LET” refers to about 20 to 40 (e.g., 20 to 25, 25 to 30, 30 to 35, or 35 to 40) keV/μM, again as determined from PSTAR unrestricted LET tables.
(§2) Studies were conducted to determine whether a nanoparticulate genistein formulation affects cellular radiosensitivity to protons with increasing LET. Normal and cancer cell lines were exposed to low, intermediate, or high LET proton radiation. These experiments used the H1299 and H460 NSCLC cell lines, which are relevant to lung cancer research during medical radiation exposure as well as nonmedical or accidental radiation exposure. These cell lines were derived from human cancer patients and have well-known radiobiologic properties, with H1299 being relatively less radiosensitive. Both lines harbor Ras pathway activating mutations (H460, KRAS; H1299, NRAS). MRC5 human lung fibroblasts also were used as representative normal cells. Each cell line was obtained from the American Type Culture Collection (ATCC) and tested for mycoplasma regularly. Clonogenic cell survival studies were performed as described elsewhere (Cengel et al., Neoplasia 9(4):341-348, 2007). Briefly, cells were plated 24 hours prior to radiation at about 50% confluence. […] Cells were radμated using either 250 KVp x-rays or protons with lower vs. higher LET. […]
(§3) Relative radiosensitivity was numerically compared using a standard variable, D0 (the dose of radiation needed to reduce the surviving fraction by a factor of 1/e), which was determined from the positive solution to the quadratic equation of the form: βD^2+αD−1=0, where α and β are determined from the LQ survival curve fit as above. The Dose Modifying Factor (DMF) was determined by the quotient: […]

H1299 human NSCLC cells = assay: Clonogenic cell survival after radiation, H1299 cells; assay type: cell-based; conditions: for Genistein (D0): 5 μM nanoparticulate genistein 24 hours before radiation; for DMF (Dose Modifying Factor): 5 μM nanoparticulate genistein vs vehicle
Excerpt: as §1
Studies were conducted to determine whether a nanoparticulate genistein formulation affects cellular radiosensitivity to protons with increasing LET. Normal and cancer cell lines were exposed to low, intermediate, or high LET proton radiation. These experiments used the H1299 and H460 NSCLC cell lines, which are relevant to lung cancer research during medical radiation exposure as well as nonmedical or accidental radiation exposure. These cell lines were derived from human cancer patients and have well-known radiobiologic properties, with H1299 being relatively less radiosensitive. Both lines harbor Ras pathway activating mutations (H460, KRAS; H1299, NRAS). MRC5 human lung fibroblasts also were used as representative normal cells. Each cell line was obtained from the American Type Culture Collection (ATCC) and tested for mycoplasma regularly. Clonogenic cell survival studies were performed as described elsewhere (Cengel et al., Neoplasia 9(4):341-348, 2007). Briefly, cells were plated 24 hours prior to radiation at about 50% confluence. […] Cells were radμated using either 250 KVp x-rays or protons with lower vs. higher LET. To vary the proton LET, cell dishes were placed at a depth of 2 cm (D2, low LET) or 10 cm (D10, high LET) in a R10.5M5 double scattered proton beam—a double scattered proton beam with a maximum range of 10.5 cm and a modulated depth of 5 cm, meaning that the Spread-out Bragg peak (SOBP) began roughly at a depth of 5.5 cm. In this configuration, the D2 and D10 positions corresponded to the entrance and terminal portions of the SOBP, respectively. After exposure to radiation, cells were trypsinized into a single cell suspension and re-plated at various densities without nanoparticulate genistein. About two weeks later (typically 13 to 16 days, depending on colony size), plates were rinsed and stained using crystal violet/ethanol, and colonies were enumerated using an Oxford Optronix automated colony counter with a minimum threshold size of 50 cells to define a colony. […]
as §3

[5] = system: H460 human non-small cell lung cancer (NSCLC) cells; assay: Clonogenic cell survival after radiation, H460 cells; assay type: cell-based; conditions: for Genistein (D0): 5 μM nanoparticulate genistein 24 hours before radiation; for DMF (Dose Modifying Factor): 5 μM nanoparticulate genistein vs vehicle, radiosensitization defined as DMF>1.1
Excerpt: as §1, §2, §3

[6] = High LET Protons (D10, 10 cm depth)

## O=c1c(-c2ccc(O)cc2)coc2cc(O)cc(O)c12 [Genistein, 5,7-dihydroxy-3-(4-hydroxyphenyl)-chromen-4-one]
[1]
  oral bioavailability: increased oral bioavailability
[2]
  oral bioavailability: increased oral bioavailability
[3]
  oral bioavailability: increased oral bioavailability
[4]; [6]
  Genistein (D0): 1.26
[4]; High LET Protons
  DMF (Dose Modifying Factor): 1.07
[4]; X-Rays (250 KVp)
  Genistein (D0): 1.38
[4]; X-Rays
  DMF (Dose Modifying Factor): 1.01
H1299 human NSCLC cells; [6]
  Genistein (D0): 3.03
H1299 human NSCLC cells; High LET Protons, radiosensitization defined as DMF>1.1
  DMF (Dose Modifying Factor): 1.35
H1299 human NSCLC cells; X-Rays (250 KVp)
  Genistein (D0): 4.28
H1299 human NSCLC cells; X-Rays, radiosensitization defined as DMF>1.1
  DMF (Dose Modifying Factor): 0.97
H1299 human NSCLC cells; lower LET protons (D2, 2 cm depth)
  DMF (Dose Modifying Factor): 1.09
[5]; [6]
  Genistein (D0): 2.23
[5]; High LET Protons
  DMF (Dose Modifying Factor): 1.04
[5]; X-Rays (250 KVp), D0 = dose reducing surviving fraction by 1/e
  Genistein (D0): 2.41
[5]; X-Rays
  DMF (Dose Modifying Factor): 1.07
